Measured values as given in PubChem BioAssay (NCI).
Several values for one entry are separate records, joined by “and”; a condition that tells them apart may be missing. Identical values can stand only once.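 96-well plates; 48 h exposure; 5 concentrations. Endpoints by linear interpolation between flanking doses. Not reached: highest tested concentration assigned. GI50 is the concentration that inhibits growth by half. TGI: total growth inhibition.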

How the values were obtained:
Test in all cases: growth of human tumour cells (NCI), 48 h
[1] = tested on: K-562 leukemia
[2] = tested on: U251 CNS
[3] = tested on: T-47D breast
[4] = tested on: LOX IMVI melanoma
[5] = tested on: HL-60(TB) leukemia
[6] = tested on: OVCAR-5 ovarian
[7] = tested on: SK-MEL-2 melanoma
[8] = tested on: UACC-62 melanoma
[9] = tested on: IGROV1 ovarian
[10] = tested on: A498 renal

SMILES	TGI [1]	TGI [2]	TGI [3] [µM]	TGI [4]	TGI [5]	TGI [6]	TGI [7]	TGI [8]	TGI [9]	TGI [10]	GI50 [3] [µM]	GI50 [5]	GI50 [8] [µM]	GI50 [6] [µM]	GI50 [7] [µM]	GI50 [1] [µM]	GI50 [2] [µM]	GI50 [4] [µM]	GI50 [10] [µM]	GI50 [9] [µM]
Brc1ccc(-c2[nH]c3ccccc3c2/C=N\Nc2ccc(-c3nc4ccccc4[nH]3)cc2)cc1	> 39.2 µM	> 42.1 µM	> 100	> 100 µM	> 100 µM	> 67.1 µM	> 35.4 µM	> 100 µM	> 88.3 µM											
c1ccc(CSC(SCc2ccccc2)c2cccc3ccccc23)cc1	> 10 µM	> 10 µM	> 10		> 10 µM	> 10 µM	> 10 µM	> 10 µM	> 10 µM	> 10 µM										
COc1cc(/C=N/NC(=O)c2c(Cl)c(Cl)c(Cl)c(Cl)c2-c2nc3ccc(C(=O)c4ccccc4)cc3[nH]2)ccc1O	> 100 µM	> 100 µM	> 100	> 100 µM	61.1 µM	> 100 µM	> 100 µM		> 100 µM											
CCOC(=O)C1=C(C(=O)OCC)SC2(S1)C(C(=O)OCC)=C(C(=O)OCC)Sc1c2ssc1=O	3.06 µM	3.95 µM	4.62	1.42 µM	1.06 µM	12.4 µM	5.5 µM	3.68 µM	2.57 µM	12.8 µM										
Cc1csc2nc(-c3cccc([N+](=O)[O-])c3)c(/C=N/N=C(N)N)n12		3.4 µM	8.06		2.26 µM	2.98 µM	3.42 µM	2.8 µM	3.19 µM	2.92 µM										
CCCCCCCCCCCCc1ccc(S(=O)(=O)O)cc1.[Cu+2]	> 100 µM	> 100 µM	> 100	> 100 µM	> 100 µM	> 100 µM		> 100 µM	> 100 µM	> 100 µM										
O=C(CSCC(=O)N/N=C\c1ccc(F)cc1F)N/N=C\c1ccc(F)cc1F		> 100 µM	> 100	> 100 µM	> 100 µM		> 100 µM	> 100 µM	> 100 µM	> 100 µM										
COC(=O)c1c(O)ccc2c1c1c(n2CCc2ccc(OC)c(OC)c2)C(=O)c2ccccc2C1=O	> 100 µM	43.2 µM	31.9		59 µM	34.1 µM	32.8 µM	32.9 µM	29.9 µM	32.9 µM										
COc1ccccc1C#C/C=C\C#Cc1ccccc1C#N	> 100 µM	> 100 µM	> 100		> 100 µM	> 100 µM	51.8 µM	> 100 µM	35.8 µM											
Cc1ncc(C(=O)Nc2ccc(CN3CCN(C)CC3)c(C(F)(F)F)c2)cc1C#Cc1cnc(N)c2ccc(C#N)cc12			> 100		> 100 µM			0.0717 µM	0.23 µM		0.114	0.4 µM	< 0.0108							
N#CC1(CCCI)CCCC1	> 100 µM	26.3 µM		22.9 µM	58.9 µM	51.6 µM	81.8 µM	35.8 µM	> 100 µM	> 100 µM										
Cc1cc(C)c2c(=O)n(CC(O)CN(Cc3ccccc3)CC(O)Cn3sc4nc(C)cc(C)c4c3=O)sc2n1 (stereo not drawn)	> 100 µM	30.6 µM	41	33.9 µM	> 100 µM	36.4 µM	33.1 µM	30.6 µM	31.7 µM											
Cc1[nH]c(C(=O)Nc2ccc(C(=O)NCCN)cc2OC(C)C)c(Cl)c1Cl						3.11 µM	3.76 µM	3.08 µM					1.7	1.67	1.99					
CC(=O)OC(C(=O)O)C(OC(C)=O)C(OC(C)=O)C(OC(C)=O)C(=O)O (stereo not drawn)	> 100 µM	> 100 µM		> 100 µM	> 100 µM	> 100 µM	> 100 µM	> 100 µM	> 100 µM	> 100 µM										
O=S(=O)(c1ccccc1)C1CC(c2nc3ccccc3[nH]2)=NO1 (stereo not drawn)	> 100 µM	> 100 µM	> 100	> 100 µM		> 100 µM	> 100 µM	> 100 µM	> 100 µM	> 100 µM										
C[C@]12CC[C@H]3[C@@H](CC=C4C[C@@H](O)CC[C@@]43C)[C@@H]1C/C(=C\c1ccncc1)[C@@H]2O	> 100 µM	33.9 µM	42.5	61 µM	31 µM	> 100 µM	45.9 µM	30.7 µM	73.5 µM	28.3 µM										
N#Cc1c(-c2ccc([N+](=O)[O-])cc2)c2c([nH]c1=O)-c1ccccc1CCC2	> 100 µM	> 100 µM	70.5	> 100 µM	> 100 µM	> 100 µM	> 100 µM	> 100 µM	> 100 µM	> 100 µM										
c1ccc(/C(=N\Nc2nc3ccccc3[nH]2)c2ccccn2)cc1	> 100 µM	> 28.5 µM	27	7.44 µM		4.47 µM	21.4 µM	6.23 µM	1.31 µM	5.14 µM										
O=C1Nc2cccc(Cl)c2/C1=C\c1cccnc1	36.5 µM	35.2 µM	16.6	> 100 µM	> 100 µM	16.1 µM	25.9 µM			37.1 µM										
O=C1OC(c2ccc(O)cc2)(c2ccc(O)cc2)c2ccc(Cl)c3cccc1c23 (tested in a mixture with another compound)	> 75 µM	25.2 µM		20.8 µM		20.8 µM	31.6 µM	21.9 µM	33.2 µM	> 75 µM										
O=C(O)c1cc2ccccc2c(N=Nc2ccc(S(=O)(=O)Nc3ccccn3)cc2)c1O	> 100 µM	> 100 µM	> 100		> 100 µM	> 100 µM	> 100 µM	> 100 µM	> 100 µM											
C[n+]1c2ccccc2c(N=[N+]=[N-])c2ccccc21	> 10 µM	> 10 µM	> 10	7.63 µM	> 10 µM	> 10 µM	> 10 µM	> 10 µM	> 10 µM	> 10 µM										
CC[C@@]1(O)CC(OC2CC(N3CCOCC3)C(O)C(C)O2)c2c(O)c3c(c(O)c2[C@H]1O)C(=O)c1cccc(O)c1C3=O (stereo partly drawn)	6.69 µM and 4.03 µM	1.73 µM and 0.348 µM	3.35	0.886 µM and 0.437 µM	0.431 µM and 0.36 µM	2.17 µM and 0.821 µM	0.959 µM and 1.5 µM	0.428 µM and 0.301 µM	2.9 µM and 5.99 µM	0.634 µM and 0.229 µM		0.000481 µM and < 0.0113 µM	0.0389	0.192		0.0426	0.0287	0.0207	0.07	0.235
C=C(CN(C)C)C(=O)c1ccccc1OC	> 54.1 µM	66.3 µM	38.5	29.3 µM	> 35.8 µM	38.5 µM	30 µM	37 µM	58.1 µM	64 µM										
